Legend:
BCDIN3D [1] = biological target: T1, BCDIN3D (Homo sapiens, UniProt Q7Z5W3); assay: BCDIN3D IC50 RFMS (RapidFire) assay with mini-helix; assay type: biochemical; details: mini-helix substrate 0.2 μM, SAM 6 μM, 25 nM enzyme
T1 sequence (Q7Z5W3 1-292): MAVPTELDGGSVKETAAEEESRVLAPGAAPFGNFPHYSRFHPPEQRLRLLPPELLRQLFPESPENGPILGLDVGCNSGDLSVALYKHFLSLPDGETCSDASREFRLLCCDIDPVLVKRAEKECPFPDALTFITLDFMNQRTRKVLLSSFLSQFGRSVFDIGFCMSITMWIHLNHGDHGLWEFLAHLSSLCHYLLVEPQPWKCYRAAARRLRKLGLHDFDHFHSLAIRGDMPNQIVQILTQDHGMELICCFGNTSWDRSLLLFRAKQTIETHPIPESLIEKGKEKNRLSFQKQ
In short: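 25 nM enzyme preincubated 10 min at room temperature with compound (1% DMSO) in 25 mM Tris pH 8.0, 10 mM DTT, 1 mM EDTA, 0.03% BSA. Reaction started with 0.2 μM mini-helix plus 6 μM SAM, run 1 h at 37 °C, quenched with TCA; SAH product quantified by RapidFire MS against isotopic SAH standards.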

BCDIN3D [2] = biological target: T1, BCDIN3D; assay: BCDIN3D InCellPulse thermal stability assay in transfected A549 cells; assay type: cell-based; details: transiently transfected A549 cells, heat shock 58° C. 15 min
In short: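 A549 cells transiently expressing BCDIN3D N-terminally fused to ePL ProLabel tag, 1500 cells/well, pre-incubated 1 h at 37 °C with compound (0.6% DMSO). Heat shock 58 °C for 15 min; remaining soluble fusion detected by split β-galactosidase complementation luminescence.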

SMILES | IC50 (BCDIN3D [1]) | IC50 (BCDIN3D [2])
Cn1ncc2c(Nc3ccc(C(F)(F)F)nc3)nc(NCC3(N)CC3)nc21 [Compound 2.45, 6-N-[(1-aminocyclopropyl)methyl]-1-methyl-4-N-[6-(trifluoromethyl)pyridin-3-yl]pyrazolo[3,4-d]pyrimidine-4,6-diamine] | 424 nM | 2470 nM
Cn1ncc2c(Nc3ccc(Cl)cn3)nc(NCC3(N)CC3)nc21 [Compound 2.46, 6-N-[(1-aminocyclopropyl)methyl]-4-N-(5-chloropyridin-2-yl)-1-methylpyrazolo[3,4-d]pyrimidine-4,6-diamine] | 2100 nM | 6530 nM
Cn1ncc2c(Nc3cnc(C(F)(F)F)cn3)nc(NCC3(N)CC3)nc21 [Compound 2.47, N6-[(1-aminocyclopropyl)methyl]-1-methyl-N4-[5-(trifluoromethyl)pyrazin-2-yl]pyrazolo[3,4-d]pyrimidine-4,6-diamine] | 4520 nM | 8300 nM
CCn1ncc2c(Nc3ccc(C(F)(F)F)cc3)nc(NCC3(N)CC3)nc21 [Compound 2.48, 6-N-[(1-aminocyclopropyl)methyl]-1-ethyl-4-N-[4-(trifluoromethyl)phenyl]pyrazolo[3,4-d]pyrimidine-4,6-diamine] | 1080 nM | 2430 nM
[2H]C([2H])([2H])n1ncc2c(Nc3ccc(C(F)(F)F)cc3)nc(NCC3(N)CC3)nc21 [Compound 2.49, N6-[(1-aminocyclopropyl)methyl]-1-(trideuteriomethyl)-N4-[4-(trifluoromethyl)phenyl]pyrazolo[3,4-d]pyrimidine-4,6-diamine] | 50 nM | 379 nM
[2H]C([2H])([2H])n1ncc2c(Nc3ccc(C(F)(F)F)nc3)nc(NCC3(N)CC3)nc21 [Compound 2.50, N6-[(1-aminocyclopropyl)methyl]-1-(trideuteriomethyl)-N4-[6-(trifluoromethyl)-3-pyridyl]pyrazolo[3,4-d]pyrimidine-4,6-diamine] | 344 nM | 2980 nM
C#CCCC1(CCOc2ccc(CNc3nc(NCC4(N)CC4)nc4c3cnn4C)cc2Cl)N=N1 [Compound 2.51, 6-N-[(1-aminocyclopropyl)methyl]-4-N-[[4-[2-(3-but-3-ynyldiazirin-3-yl)ethoxy]-3-chlorophenyl]methyl]-1-methylpyrazolo[3,4-d]pyrimidine-4,6-diamine] | 179 nM | 252 nM
Cn1ncc2c(Nc3ccc(C(F)(F)F)cc3)cc(NCC3(N)CC3)nc21 [Compound 2.52, N6-[(1-Aminocyclopropyl)methyl]-1-methyl-N4-[4-(trifluoromethyl)phenyl]pyrazolo[3,4-b]pyridine-4,6-diamine] | 6900 nM | 8890 nM
Cc1ccc(CNc2nc(NCC(C)N)nc3c2cnn3C)cc1Cl (stereo not shown) [Compound 3.01, 6-N-(2-aminopropyl)-4-N-[(3-chloro-4-methylphenyl)methyl]-1-methylpyrazolo[3,4-d]pyrimidine-4,6-diamine] | 3320 nM | 2280 nM
Cc1ccc(CNc2nc(NC[C@@H](C)N)nc3c2cnn3C)cc1Cl [Compound 3.04, 6-N-[(2R)-2-aminopropyl]-4-N-[(3-chloro-4-methylphenyl)methyl]-1-methylpyrazolo[3,4-d]pyrimidine-4,6-diamine] | 665 nM | 1450 nM
CC[C@@H](CN)Nc1nc(NCc2ccc(C)c(Cl)c2)c2cnn(C)c2n1 [Compound 3.05] | 1440 nM | 1440 nM
CC[C@H](N)CNc1nc(NCc2ccc(C)c(Cl)c2)c2cnn(C)c2n1 [Compound 3.06, 6-N-[(2S)-2-aminobutyl]-4-N-[(3-chloro-4-methylphenyl)methyl]-1-methylpyrazolo[3,4-d]pyrimidine-4,6-diamine] | 3420 nM | 4420 nM
CC[C@@H](N)CNc1nc(NCc2ccc(C)c(Cl)c2)c2cnn(C)c2n1 [Compound 3.07, 6-N-[(2R)-2-aminobutyl]-4-N-[(3-chloro-4-methylphenyl)methyl]-1-methylpyrazolo[3,4-d]pyrimidine-4,6-diamine] | 299 nM | 664 nM
Cn1ncc2c(Nc3ccc(C(F)(F)F)cc3)nc(NCC3(N)CCC3)nc21 [Compound 3.08, N6-[(1-aminocyclobutyl)methyl]-1-methyl-N4-[4-(trifluoromethyl)phenyl]pyrazolo[3,4-d]pyrimidine-4,6-diamine] | 50.5 nM | 259 nM
Cn1ncc2c(Nc3ccc(OC(F)F)cc3)nc(NCC3(N)CCC3)nc21 [Compound 3.09, N6-[(1-aminocyclobutyl)methyl]-N4-[4-(difluoromethoxy)phenyl]-1-methyl-pyrazolo[3,4-d]pyrimidine-4,6-diamine] | 201 nM | 503 nM
Cn1ncc2c(NC(C)(C)C)nc(NCC(N)C3CCCCC3)nc21 (stereo not shown) [Compound 3.10, N6-(2-amino-2-cyclohexyl-ethyl)-N4-tert-butyl-1-methyl-pyrazolo[3,4-d]pyrimidine-4,6-diamine] | 228 nM | 123 nM
Cn1ncc2c(Nc3ccc(C(F)(F)F)cc3)nc(NCC(N)C3CCCCC3)nc21 (stereo not shown) [Compound 3.11, N6-(2-amino-2-cyclohexyl-ethyl)-1-methyl-N4-[4-(trifluoromethyl)phenyl]pyrazolo[3,4-d]pyrimidine-4,6-diamine] | 101 nM | 65.4 nM
Cn1ncc2c(Nc3ccc(C(F)(F)F)cc3)nc(NCC3(N)CC(F)(F)C3)nc21 [Compound 3.12, 6-N-[(1-amino-3,3-difluorocyclobutyl)methyl]-1-methyl-4-N-[4-(trifluoromethyl)phenyl]pyrazolo[3,4-d]pyrimidine-4,6-diamine] | 479 nM | 1570 nM
Cn1ncc2c(Nc3ccc(C(F)(F)F)cc3)nc(NCC(N)C3CC3)nc21 (stereo not shown) [Compound 3.13, 6-N-(2-amino-2-cyclopropylethyl)-1-methyl-4-N-[4-(trifluoromethyl)phenyl]pyrazolo[3,4-d]pyrimidine-4,6-diamine] | 180 nM | 510 nM
Cn1ncc2c(Nc3ccc(C(F)(F)F)cc3)nc(NCC3(N)CCOC3)nc21 (stereo not shown) [Compound 3.14, 6-N-[(3-aminooxolan-3-yl)methyl]-1-methyl-4-N-[4-(trifluoromethyl)phenyl]pyrazolo[3,4-d]pyrimidine-4,6-diamine] | 252 nM | 2410 nM
Cn1ncc2c(Nc3ccc(C(F)(F)F)nc3)nc(NCC3(N)CCOC3)nc21 (stereo not shown) [Compound 3.15, N6-[(3-aminotetrahydrofuran-3-yl)methyl]-1-methyl-N4-[6-(trifluoromethyl)-3-pyridyl]pyrazolo[3,4-d]pyrimidine-4,6-diamine] | 1630 nM | 6540 nM
Cn1ncc2c(Nc3ccc(C(F)(F)F)cc3)nc(NCC3COCCN3)nc21 (stereo not shown) [Compound 3.16, 1-methyl-N6-[(morpholin-3-yl)methyl]-N4-[4-(trifluoromethyl)phenyl]-1H-pyrazolo[3,4-d]pyrimidine-4,6-diamine] | 9920 nM | 60000 nM
Cn1ncc2c(Nc3ccc(C(F)(F)F)cc3)nc(NCC3(N)CCCC3)nc21 [Compound 3.18, 6-N-[(1-aminocyclopentyl)methyl]-1-methyl-4-N-[4-(trifluoromethyl)phenyl]pyrazolo[3,4-d]pyrimidine-4,6-diamine] | 88 nM | 335 nM
Cn1ncc2c(Nc3ccc(C(F)(F)F)nc3)nc(NCC3(N)CCCC3)nc21 [Compound 3.19, 6-N-[(1-aminocyclopentyl)methyl]-1-methyl-4-N-[6-(trifluoromethyl)pyridin-3-yl]pyrazolo[3,4-d]pyrimidine-4,6-diamine] | 357 nM | 1240 nM
Cn1ncc2c(Nc3ccc(OC(F)F)cc3)nc(NCC3(N)CCCC3)nc21 [Compound 3.20, 6-N-[(1-aminocyclopentyl)methyl]-4-N-[4-(difluoromethoxy)phenyl]-1-methylpyrazolo[3,4-d]pyrimidine-4,6-diamine] | 305 nM | 724 nM
Cn1ncc2c(Nc3ccccc3)nc(NCC3(N)CCCC3)nc21 [Compound 3.21, 6-N-[(1-aminocyclopentyl)methyl]-1-methyl-4-N-phenylpyrazolo[3,4-d]pyrimidine-4,6-diamine] | 1440 nM | 2000 nM
Cn1ncc2c(Nc3ccc(C#N)cc3)nc(NCC3(N)CCCC3)nc21 [Compound 3.22, 4-[[6-[(1-aminocyclopentyl)methylamino]-1-methylpyrazolo[3,4-d]pyrimidin-4-yl]amino]benzonitrile] | 1800 nM | 2260 nM
Cn1ncc2c(Nc3ccc(OC(F)(F)F)cc3)nc(NCC3(N)CCCC3)nc21 [Compound 3.23, 6-N-[(1-aminocyclopentyl)methyl]-1-methyl-4-N-[4-(trifluoromethoxy)phenyl]pyrazolo[3,4-d]pyrimidine-4,6-diamine] | 115 nM | 267 nM
[2H]C([2H])([2H])n1ncc2c(Nc3ccc(C(F)(F)F)cc3)nc(NCC3(N)CCC3)nc21 [Compound 3.24, N6-[(1-aminocyclobutyl)methyl]-1-(trideuteriomethyl)-N4-[4-(trifluoromethyl)phenyl]pyrazolo[3,4-d]pyrimidine-4,6-diamine] | 45 nM | 481 nM

Reference: patent US20220370453A1 (Storm Therapeutics Ltd, priority 2019, published 2022)
